Type in all cases: functional
Assay [1] in a line: Murine tumor cell selectivity as zone unit differential between ([…]) murine cell line and (CFU) normal bone marrow in disk diffusion soft agar colony formation assay at 75 ug/disk. In general terms: Agar diffusion results depend on both activity and mobility in agar.
The nature of assay [2]: Murine tumor cell selectivity was measured as zone unit differential between (C38) colon adenocarcinoma and (CFU) normal bone marrow in disk diffusion soft agar colony formation assay at a concentration of 75 ug/disk.
Assay [3] is described as follows: Murine tumor cell selectivity as zone unit differential between (C38) colon adenocarcinoma and ([…]) murine cell line in disk diffusion soft agar colony formation assay at 75 ug/disk.
A short description of assay [4]: Human tumor selectivity was measured as zone unit differential between (H125) lung small cell carcinoma and (CEM) lymphocytic leukemia in disk diffusion soft agar colony formation assay at a concentration of 75 ug/disk.
Assay [5] in a line: Human tumor selectivity was measured as zone unit differential between (H125) lung small cell carcinoma and (CEM) lymphocytic leukemia in disk diffusion soft agar colony formation assay at a concentration of 5 ug/disk.
The nature of assay [6]: Human tumor selectivity was measured as zone unit differential between (H116) colon tumor and (CEM) lymphocytic leukemia in disk diffusion soft agar colony formation assay at a concentration of 5 ug/disk.
A short description of assay [7]: Murine tumor cell selectivity was measured as zone unit differential between ([…]) murine cell line and (CFU) normal bone marrow in disk diffusion soft agar colony formation assay at a concentration of 5 ug/disk.
The nature of assay [8]: Murine tumor cell selectivity was measured as zone unit differential between (C38) colon adenocarcinoma and (CFU) normal bone marrow in disk diffusion soft agar colony formation assay at a concentration of 5 ug/disk.
Assay [9] is described as follows: Murine tumor cell selectivity was measured as zone unit differential between (C38) colon adenocarcinoma and ([…]) murine cell line in disk diffusion soft agar colony formation assay at a concentration of 5 ug/disk.

`CC[C@H]1C=CCC[C@@]2(C[C@@H]3CC[C@@H]4[C@H](C(=O)OCCCCCCCCCCCCCCCCCC(=O)O)[C@]5(CCC[C@@H](C)O5)NC(=[N+]34)N2)O1.[Cl-]` [GUANIDINO ACID]: the Selectivity is recorded as 0 in [1], 100 in [2], 100 in assay [3] and 150 in assay [4].

Take `CCOC(=O)[C@H]1[C@H]2CC[C@H]3C[C@@]4(CCC=C[C@H](CC)O4)NC(=[N+]32)N[C@@]12CCC[C@@H](C)O2.[Cl-]`: the Selectivity in assay [5] is 100; in assay [6] it was 0; in assay [7], 200; in assay [8], 150; in [9], -50.

Consider `CC[C@H]1C=CCC[C@@]2(C[C@@H]3CC[C@@H]4[C@H](C(=O)OCCCCCC(=O)N(CCCN)C[C@@H](O)CCN)[C@]5(CCC[C@@H](C)O5)NC(=[N+]34)N2)O1.Cl.Cl.[Cl-]`, for which the Selectivity in assay [1] is listed as 300; in assay [2], 0; in [3], -300; in [4], -50.

Regarding `CC[C@H]1C=CCC[C@@]2(C[C@@H]3CC[C@@H]4[C@H](C(=O)OCCCCCCCCCCCCCCCC(=O)N(CCCN)C[C@@H](O)CCN)[C@]5(CCC[C@@H](C)O5)NC(=N2)N34)O1.Cl.Cl.Cl` [CRAMBESCIDIN 800 TRIHYDROCHLORIDE], the Selectivity was 150 in assay [1], -50 in assay [2], -200 in assay [3] and 50 in assay [4].

Turning to `CC[C@H]1C=CCC[C@@]2(C[C@@H]3CC[C@H]4[C@H](C(=O)OCCCCCCCCCCCCCCCC(=O)N(CCCN)C[C@@H](O)CCN)[C@@]5(CCC[C@@H](C)O5)NC(=[N+]34)N2)O1.Cl.Cl.[Cl-]`, the Selectivity is given as 50 in [1], 50 in assay [2], 0 in assay [3] and 50 in assay [4].

Regarding `CC[C@H]1C=CCC[C@@]2(C[C@@H]3CC[C@@H]4[C@@H](C(=O)OC/C=C/c5ccccc5)[C@]5(CCC[C@@H](C)O5)NC(=[N+]34)N2)O1.[Cl-]`, the Selectivity in assay [5] was found to be 200; in assay [6], 100; in [7] it was 50; in [8], 100; in [9], 50.

Consider `CC[C@H]1C=CCC[C@@]2(C[C@@H]3CC[C@@H]4[C@H](C(=O)OCCCCCCCCCCCCCCC(=O)N(CCCN)C[C@@H](O)CCN)[C@]5(CCC[C@@H](C)O5)NC(=[N+]34)N2)O1.Cl.Cl.[Cl-]`, for which the Selectivity amounted to 100 in assay [1], 150 in assay [2], 50 in assay [3] and 400 in assay [4].

For `CC[C@H]1C=CCC[C@@]2(C[C@@H]3CC[C@@H]4[C@H](C(=O)OCC5CC5)[C@]5(CCC[C@@H](C)O5)NC(=[N+]34)N2)O1.[Cl-]`, the Selectivity in [5] stood at 150; in assay [6], 100; in assay [7], 100; in [8], 300; in [9] it was 200.

As to `CC[C@H]1C=CCC[C@@]2(C[C@@H]3CC[C@H]4[C@@H](C(=O)OCCCCCCCCCCCCCCCC(=O)N(CCCN)C[C@@H](O)CCN)[C@@]5(CCC[C@@H](C)O5)NC(=[N+]34)N2)O1.Cl.Cl.[Cl-]`, the Selectivity is given as 50 in assay [1], 0 in assay [2], -50 in [3] and 100 in assay [4].

`CC[C@H]1C=CCC[C@@]2(C[C@@H]3CC[C@@H]4[C@H](C(=O)OCCCCCCCCCCCCCCC(=O)[O-])[C@]5(CCC[C@@H](C)O5)NC(=[N+]34)N2)O1.Cl` [GUANIDINO ACID]: the Selectivity in [1] is -100; in assay [2], 100; in [3], 200; in assay [4], 100.

For the compound `CC[C@H]1C=CCC[C@@]2(C[C@@H]3CC[C@@H]4[C@H](C(=O)OCCCCCCCCCCCCCCCC(=O)O)[C@]5(CCC[C@@H](C)O5)NC(=[N+]34)N2)O1.[Cl-]` [CRAMBESCIDIN 657], the Selectivity in assay [1] was 50; in assay [2], 200; in assay [3] it was 150; in assay [4], 100.

Take `CC[C@H]1C=CCC[C@@]2(C[C@@H]3CC[C@@H]4[C@@H](C(=O)[O-])[C@]5(CCC[C@@H](C)O5)NC(=[N+]34)N2)O1.Cl`: the Selectivity in assay [1] was 300; in assay [2], 200; in assay [3], -100; in assay [4], 50.

As for `CC[C@H]1C=CCC[C@@]2(C[C@@H]3CC[C@@H]4[C@H](C(=O)OCCCCCCCC(=O)O)[C@]5(CCC[C@@H](C)O5)NC(=[N+]34)N2)O1.[Cl-]` [GUANIDINO ACID], the Selectivity in [1] is 100; in assay [2], 200; in [3], 100; in assay [4], -50.

As for `CC[C@H]1C=CCC[C@@]2(C[C@@H]3CC[C@H]4[C@@H](C(=O)OCCCCCCCCCCCCCCCC(=O)O)[C@@]5(CCC[C@@H](C)O5)NC(=[N+]34)N2)O1.[Cl-]`, the Selectivity in [1] is -50; in assay [2], 50; in assay [3], 100; in [4] it was 150.

For the compound `CC[C@H]1C=CCC[C@@]2(C[C@@H]3CC[C@@H]4[C@H](C(=O)OCCCCCC(=O)[O-])[C@]5(CCC[C@@H](C)O5)NC(=[N+]34)N2)O1.Cl` [GUANIDINO ACID], the Selectivity in assay [1] was 200; in [2], 0; in assay [3], -200; in assay [4], 150.

For `CC[C@H]1C=CCC[C@@]2(C[C@@H]3CC[C@@H]4[C@H](C(=O)OCCCCCCCCCCCC(=O)O)[C@]5(CCC[C@@H](C)O5)NC(=[N+]34)N2)O1.[Cl-]` [GUANIDINO ACID], the Selectivity in assay [1] is 50; in [2], 250; in [3], 200; in assay [4], 200.

As for `CC[C@H]1C=CCC[C@@]2(C[C@@H]3CC[C@@H]4[C@H](C(=O)OCCCCCCCC(=O)N(CCCN)C[C@@H](O)CCN)[C@]5(CCC[C@@H](C)O5)NC(=[N+]34)N2)O1.Cl.Cl.[Cl-]`, the Selectivity is on record as 300 in assay [1], 100 in [2], -200 in assay [3] and -50 in assay [4].

Consider `CC[C@H]1C=CCC[C@@]2(C[C@@H]3CC[C@@H]4[C@H](C(=O)OCCCCCCCCCC(=O)O)[C@]5(CCC[C@@H](C)O5)NC(=[N+]34)N2)O1.[Cl-]` [GUANIDINO ACID], for which the Selectivity in assay [1] was -200; in assay [2] it was 100; in assay [3], 300; in assay [4] it was 50.

Consider `CC[C@H]1C=CCC[C@@]2(C[C@@H]3CC[C@@H]4[C@H](C(=O)OCc5ccccc5)[C@]5(CCC[C@@H](C)O5)NC(=[N+]34)N2)O1.[Cl-]`, for which the Selectivity in [5] came to 150; in [6], 50; in assay [7], 50; in assay [8] it was 100; in assay [9], 50.

In the case of `CC[C@H]1C=CCC[C@@]2(C[C@@H]3CC[C@@H]4[C@H](C(=O)OCCCCCCCCCCCC(=O)N(CCCN)C[C@@H](O)CCN)[C@]5(CCC[C@@H](C)O5)NC(=[N+]34)N2)O1.Cl.Cl.[Cl-]`, the Selectivity in assay [1] is recorded as 50; in [2], 100; in assay [3] it was 50; in [4], 100.

As for `CC[C@H]1C=CCC[C@@]2(C[C@@H]3CC[C@@H]4[C@H](C(=O)OCCCCCCCCCCCCCCCCCC(=O)N(CCCN)C[C@@H](O)CCN)[C@]5(CCC[C@@H](C)O5)NC(=[N+]34)N2)O1.Cl.Cl.[Cl-]`, the Selectivity in [1] was found to be 100; in assay [2] it was 150; in [3] it was 50; in assay [4], 150.

Take `CC[C@H]1C=CCC[C@@]2(C[C@@H]3CC[C@@H]4[C@H](C(=O)OCCCCCCCCCC(=O)N(CCCN)C[C@@H](O)CCN)[C@]5(CCC[C@@H](C)O5)NC(=[N+]34)N2)O1.Cl.Cl.[Cl-]`: the Selectivity in assay [1] is listed as 300; in assay [2], 100; in assay [3] it was 0; in assay [4], -50.

Turning to `CC[C@H]1C=CCC[C@@]2(C[C@@H]3CC[C@@H]4[C@H](C(=O)OCCC(C)C)[C@]5(CCC[C@@H](C)O5)NC(=[N+]34)N2)O1.[Cl-]`, the Selectivity was 150 in [5]; 50 in assay [6]; -50 in assay [7]; 0 in assay [8]; 50 in [9].

(Values after ChEMBL document CHEMBL1147463, “Synthesis and anticancer activity of side chain analogs of the crambescidin alkaloids” (2004).)
